Results as given in patent US6875844B1, “Peptide compounds derived from a shifted ORF of the iCE gene” (Institut Gustave Roussy, priority 1999, dated 2005).

How the values were obtained:
[1] = test system: autologous EBV-transformed B cells; assay: Target sensitization assay: 51Cr release lysis by CTL clone 3B8 of peptide-incubated autologous EBV-transformed B cells; assay type: cell-based, human; conditions: EBV-transformed B cells incubated with peptide, CTL clone 3B8 effector 30:1, chromium release after 4 h; read-out: Peptide concentration giving semi-maximal lysis
Protocol: 2000 EBV-transformed cells were incubated and labeled with 51Cr for 1 h in the presence of the HLA-B7-restricted iCE peptide (SPRWWPTCL; SEQ ID NO:2) or another control HLA-B7-restricted peptide (VISTVVANL; SEQ ID NO:9). Clone 3B8 was then added as an effector, in a ratio set at 30:1. Chromium release was measured after 4 h.
The cytolytic activity of the CTLs was determined in a standard ^51Cr release assay as previously described (22). Target cells (RCC and K562 cell lines) were labeled for 1 h with 50 μCi to 100 μCi of ^51Cr (Du Pont, NEN, Boston, Mass.) at 37° C., and 2×10^3 cells were seeded in 96-microwell plates in 100 μl of RPMI supplemented with 5% of FCS. […] The 96-microwell plates were incubated at 37° C. for 4 h, and ^51Cr release was determined in the harvested supernatants. […]
In order to reduce the nucleotide sequence encoding the antigen, several truncated cDNAs were obtained by PCR amplification. […] After examining the corresponding amino acid sequence, all possible nonamers and decamers were synthesized, and their ability to make autologous EBV-transformed B cells sensitive to lysis by 3B8 was evaluated.
Finally, an alternative ORF was found (a+1 translational open reading frame leading to a 453-nt ORF) with three ATGs in nt positions 476, 479 and 803, which encodes a nonamer (SPRWWPTCL) (SEQ ID NO: 2) in the minimum region of nt 763-855. […]

[2] = molecular target: T1, HLA-B*0702 (Homo sapiens, UniProt P01889); assay: Binding and stability of peptide on T2 cells transfected with HLA-B*0702 (HLA-B7 expression by flow cytometry)
T1 construct: expressed in transfected cells; host or cells: T2 cells
Protocol: T2 cells were incubated at 26° C. for 16 hours in medium without serum containing peptides at a concentration of 50 μM. Then, the peptides were again added, and the cells were incubated at 37° C. At 30-min or 1-h intervals, aliquots of cells were harvested, and the change in HLA-B7 expression was monitored by flow cytometry using an anti-HLA-B7 mAB (HB59). By way of control, an HLA-A2-restricted HSP70 peptide was used. The peptide SPRWWPTCL is provided in SEQ ID NO: 2.
HLA-A2-binding peptide antigens upregulate the expression of HLA-A2 molecules on T2 cells (37). Similarly, T2 cells transfected with HLA-B*0702 (38) were used to analyze the binding capacity and the stability of the iCE peptide (FIG. 6). At […], the binding of the iCE peptide is stable over time for at least 4 h, unlike the control, which is the HLA-A2-restricted HSP70 peptide (14).

Sequence: SPRWWPTCL [nonamer encoded by the +1 alternative ORF of the iCE gene, with HLA-B7-anchoring residues at positions 2, 3 and 9]
- EC50 [1]: < 1000 nM
- Stability of binding to T2 cells transfected with HLA-B*0702 (in words) ([2]; T2 cells transfected with HLA-B*0702): stable with time
- Time over which binding to HLA-B7 is stable ([2]; T2 cells transfected with HLA-B*0702, peptide at 50 mM (so in the source), 37° C.): at least 4 h
- Binding to HLA-B*0702-presenting molecules (in words) ([2]; binding assay by immunofluorescence using transfected T2 cells): binds
